# Experiments:
# male balb/c mice = assay: Open field test, functional state of the central nervous system of mice; assay type: in vivo; settings: for The number of acts of defecation within 15 minutes: control 0.2 ± 0.1; for The number of washes within 15 minutes (grooming): control 8.0 ± 1.5; for Number of standing up on hind legs in 15 minutes (vertical activity): control 67.1 ± 3.5; for Number of squares crossed within 15 minutes (horizontal activity): control 443.3 ± 15.6; for General physical activity for 15 minutes: control 518.4 ± 15.3
# Procedure: For the final confirmation of the safety of Compound I at the oral administration, the study of the effect of Compound I on the functional state of the central nervous system of mice in the open field test was carried out. “Open field” test consists in the evaluation of motor and research activities, orientation reaction and emotional reactivity in the registration of spontaneous behaviour of animals. The study was carried out according to the standard technique (Buresh Y, Bureshova O., Joseph P. Houston. Methods and main experiments to study the brain and behavior (Moscow, 1991, pp. 119-122).
# The study was carried out on male balb/c mice, the individual weight of which deviates from the mean value within the sex of no more than ±10%.
# Compound I was administered once, intragastrically. The evaluation of the effect on the central nervous system was carried out 2 hours after the administration of Compound I in the study of the approximate research behaviour of mice in the “open field”. The experimental “open field” facility was a chamber of 100×100×60 cm in size, with a square floor and white walls. The floor of the chamber is divided into 16 squares, in each square there is the round orifice having 6 cm in diameter. The chamber is illuminated by the incandescent electric lamp having a power of 100 watts, located at a height of 1 m from the floor of the chamber. The animal was placed in one of the corners of the chamber and for 15 minutes the number of horizontal squares crossed by it (horizontal activity), getting up on its hind legs (vertical activity), washing (grooming), and defecation by the number of fecal balls were recorded. Then the total motor activity was calculated, the activity was calculated as the sum of the crossed horizontal squares, standing on the hind legs and washing.
# The obtained data were checked using the Grubb's test for the presence of the largest or smallest abnormal observation (ejection) in the sample. Values determined “to be eliminated” in this test were not used for further assay. For all data, descriptive statistics was used: a mean value (M) and standard error of the mean value (m) were counted up. The normality of distribution of the values obtained in the course of the experiment was checked with the aid of the Kolmogorov-Smirnov test. In the case of normal distribution, Student's t-test (t-test) was used to evaluate the inter-group distinctions. In the case of the distribution that is other than the normal one the Kruskalll-Wallis test with Dann's post hoc test was used for the comparison of several groups. Distinctions were determined at 5% at a level of confidence.
# [1] = target: human recombinant μ-opioid receptor (Homo sapiens, UniProt P35372); assay: μ-opioid receptor radioligand displacement ([3H]DAMGO); assay type: binding
# Chain of human recombinant μ-opioid receptor (P35372 whole entry): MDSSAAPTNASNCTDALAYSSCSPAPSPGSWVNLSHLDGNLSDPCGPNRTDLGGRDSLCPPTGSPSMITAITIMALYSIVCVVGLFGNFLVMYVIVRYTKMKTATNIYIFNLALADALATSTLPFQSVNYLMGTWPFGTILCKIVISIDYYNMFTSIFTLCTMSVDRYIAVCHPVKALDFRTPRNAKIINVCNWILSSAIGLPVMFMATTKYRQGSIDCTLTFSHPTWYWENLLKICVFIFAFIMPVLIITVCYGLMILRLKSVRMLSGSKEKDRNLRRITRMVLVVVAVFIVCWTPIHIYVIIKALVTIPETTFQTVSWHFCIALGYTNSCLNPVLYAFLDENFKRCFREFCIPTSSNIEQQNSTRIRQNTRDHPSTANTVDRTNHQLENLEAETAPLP
# [2] = system: guinea pigs of Agouti line; assay: Citrate cough model in guinea pigs, inhalation administration; assay type: in vivo; settings: 0.25 mg/kg by inhalation 15 minutes prior to citric acid
# human NK2R = target: T1, human NK2R (Homo sapiens, UniProt P21452); assay: Effect on activity of tachykinin receptor type 2 (intracellular calcium, fluorescence); assay type: cell-based; settings: CHO cells expressing human NK2R, agonist [Nleu10]-NKA-(4-10) 10 nM, read-out: IC50, antagonist of tachykinin receptor type 2
# T1 construct: expressed in transfected cells; host or cells: CHO cells
# T1 sequence (P21452 1-398): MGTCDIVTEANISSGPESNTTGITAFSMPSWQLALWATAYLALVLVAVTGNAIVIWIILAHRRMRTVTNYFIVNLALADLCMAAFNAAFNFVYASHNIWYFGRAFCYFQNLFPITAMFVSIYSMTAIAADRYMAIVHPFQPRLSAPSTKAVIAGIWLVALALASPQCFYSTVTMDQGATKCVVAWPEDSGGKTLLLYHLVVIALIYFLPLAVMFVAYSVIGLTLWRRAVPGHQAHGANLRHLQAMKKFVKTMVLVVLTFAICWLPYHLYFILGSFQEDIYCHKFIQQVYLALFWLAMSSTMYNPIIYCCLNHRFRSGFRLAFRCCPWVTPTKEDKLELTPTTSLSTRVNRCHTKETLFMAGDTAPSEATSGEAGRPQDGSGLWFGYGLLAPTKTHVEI
# Procedure: Compound I was dissolved in DMSO to a concentration of 100 mM; then the stock solution was serially diluted with DMSO. The maximal start concentration of substance is […]. The effect was determined at 8 concentrations of test compound, each concentration was investigated twice. CHO cells expressing human NK2R were used in the experiment, said cells after the preincubation with an agonist [Nleu10]-NKA-(4-10) (10 nM) were incubated with the test compound. The activity of receptors was determined by the intracellular calcium concentration using fluorescence spectroscopy (Biochem Biophys Res Commun. 1994 May 16; 200(3):1512-20).
# [3] = 0.75 mg/kg intragastrically 2 hours prior
# [4] = 1.5 mg/kg intragastrically 2 hours prior
# [5] = 2.5 mg/kg intragastrically 2 hours prior
# [6] = 5 mg/kg intragastrically 2 hours prior
# [7] = 10 mg/kg intragastrically 2 hours prior
# [8] = 20 mg/kg intragastrically 2 hours prior
# [9] = 30 mg/kg intragastrically 2 hours prior
smiles,measurement,setting,value
"O=C(Cc1ccc(O)cc1)N[C@@H](Cc1ccccc1)C(=O)NCCc1ccccc1 [Compound I, 2-phenylethylamide N-(p-hydroxyphenylacetyl)phenylalanine]",The number of acts of defecation within 15 minutes,male balb/c mice; [3],0.2 ± 0.1
same,The number of washes within 15 minutes (grooming),male balb/c mice; [3],7.2 ± 1.4
same,Number of standing up on hind legs in 15 minutes (vertical activity),male balb/c mice; [3],69.9 ± 4.3
same,Number of squares crossed within 15 minutes (horizontal activity),male balb/c mice; [3],468.5 ± 13.0
same,General physical activity for 15 minutes,male balb/c mice; [3],545.6 ± 16.5
same,The number of acts of defecation within 15 minutes,male balb/c mice; [4],1.6 ± 0.6
same,The number of washes within 15 minutes (grooming),male balb/c mice; [4],8.5 ± 1.6
same,Number of standing up on hind legs in 15 minutes (vertical activity),male balb/c mice; [4],63.0 ± 4.2
same,Number of squares crossed within 15 minutes (horizontal activity),male balb/c mice; [4],414.2 ± 24.1
same,General physical activity for 15 minutes,male balb/c mice; [4],485.7 ± 24.8
same,The number of acts of defecation within 15 minutes,male balb/c mice; [5],0.0 ± 0.0
same,The number of washes within 15 minutes (grooming),male balb/c mice; [5],8.6 ± 1.6
same,Number of standing up on hind legs in 15 minutes (vertical activity),male balb/c mice; [5],72.8 ± 3.5
same,Number of squares crossed within 15 minutes (horizontal activity),male balb/c mice; [5],459.5 ± 19.0
same,General physical activity for 15 minutes,male balb/c mice; [5],540.9 ± 18.0
same,The number of acts of defecation within 15 minutes,male balb/c mice; [6],1.5 ± 0.2
same,The number of washes within 15 minutes (grooming),male balb/c mice; [6],2.3 ± 1.0
same,Number of standing up on hind legs in 15 minutes (vertical activity),male balb/c mice; [6],71.7 ± 4.4
same,Number of squares crossed within 15 minutes (horizontal activity),male balb/c mice; [6],480.6 ± 22.1
same,General physical activity for 15 minutes,male balb/c mice; [6],554.6 ± 23.9
same,The number of acts of defecation within 15 minutes,male balb/c mice; [7],0.0 ± 0.0
same,The number of washes within 15 minutes (grooming),male balb/c mice; [7],6.8 ± 1.3
same,Number of standing up on hind legs in 15 minutes (vertical activity),male balb/c mice; [7],66.1 ± 3.3
same,Number of squares crossed within 15 minutes (horizontal activity),male balb/c mice; [7],449.2 ± 15.6
same,General physical activity for 15 minutes,male balb/c mice; [7],522.1 ± 16.5
same,The number of acts of defecation within 15 minutes,male balb/c mice; [8],0.0 ± 0.0
same,The number of washes within 15 minutes (grooming),male balb/c mice; [8],6.2 ± 1.3
same,Number of standing up on hind legs in 15 minutes (vertical activity),male balb/c mice; [8],64.9 ± 4.0
same,Number of squares crossed within 15 minutes (horizontal activity),male balb/c mice; [8],479.4 ± 29.3
same,General physical activity for 15 minutes,male balb/c mice; [8],545.5 ± 30.4
same,The number of acts of defecation within 15 minutes,male balb/c mice; [9],0.0 ± 0.0
same,The number of washes within 15 minutes (grooming),male balb/c mice; [9],5.9 ± 1.4
same,Number of standing up on hind legs in 15 minutes (vertical activity),male balb/c mice; [9],69.0 ± 3.8
same,Number of squares crossed within 15 minutes (horizontal activity),male balb/c mice; [9],448.4 ± 16.4
same,General physical activity for 15 minutes,male balb/c mice; [9],523.3 ± 16.6
same,Toxic influence on approximate-research behaviour in the open field test,"male balb/c mice; intragastric administration, 0.75-30 mg/kg, no statistically significant differences to control",did not have the toxic influence
same,IC50,[1],4.1 µM
same,Suppression of cough (% from the control of pathology) in the chamber,[2],39.1%
same,A number of cough attacks during the inhalation for 10 minutes,[2]; control 48.8 ± 4,29.7 ± 2.7*&
same,IC50,human NK2R,6.4 µM

# From patent US11414377B2, “Modulator of metabotropic and ionotropic transmembrane receptors and use thereof” (IBD THERAPEUTICS LLC, priority 2018, dated 2022)
